pIC50, pKd: −log10 of the molar value.
Experiments:
[1] = Inhibition of IFNalpha induced STAT phosphorylation in human whole blood by fluorescence based analysis; assay type: tissue-based
[2] = molecular target: T1, Tyrosine-protein kinase JAK1 (Homo sapiens, UniProt P23458); test: Inhibition of human recombinant JAK1 preincubated for 15 mins followed by substrate addition measured after 60 mins by HTRF assay
[3] = molecular target: T2, Tyrosine-protein kinase JAK2 (Homo sapiens, UniProt O60674); test: Inhibition of human recombinant JAK2 preincubated for 15 mins followed by substrate addition measured after 60 mins by HTRF assay
[4] = molecular target: T3, Tyrosine-protein kinase JAK3 (Homo sapiens, UniProt P52333); test: Inhibition of human recombinant JAK3 preincubated for 15 mins followed by substrate addition measured after 60 mins by HTRF assay
T3 sequence (P52333 whole entry): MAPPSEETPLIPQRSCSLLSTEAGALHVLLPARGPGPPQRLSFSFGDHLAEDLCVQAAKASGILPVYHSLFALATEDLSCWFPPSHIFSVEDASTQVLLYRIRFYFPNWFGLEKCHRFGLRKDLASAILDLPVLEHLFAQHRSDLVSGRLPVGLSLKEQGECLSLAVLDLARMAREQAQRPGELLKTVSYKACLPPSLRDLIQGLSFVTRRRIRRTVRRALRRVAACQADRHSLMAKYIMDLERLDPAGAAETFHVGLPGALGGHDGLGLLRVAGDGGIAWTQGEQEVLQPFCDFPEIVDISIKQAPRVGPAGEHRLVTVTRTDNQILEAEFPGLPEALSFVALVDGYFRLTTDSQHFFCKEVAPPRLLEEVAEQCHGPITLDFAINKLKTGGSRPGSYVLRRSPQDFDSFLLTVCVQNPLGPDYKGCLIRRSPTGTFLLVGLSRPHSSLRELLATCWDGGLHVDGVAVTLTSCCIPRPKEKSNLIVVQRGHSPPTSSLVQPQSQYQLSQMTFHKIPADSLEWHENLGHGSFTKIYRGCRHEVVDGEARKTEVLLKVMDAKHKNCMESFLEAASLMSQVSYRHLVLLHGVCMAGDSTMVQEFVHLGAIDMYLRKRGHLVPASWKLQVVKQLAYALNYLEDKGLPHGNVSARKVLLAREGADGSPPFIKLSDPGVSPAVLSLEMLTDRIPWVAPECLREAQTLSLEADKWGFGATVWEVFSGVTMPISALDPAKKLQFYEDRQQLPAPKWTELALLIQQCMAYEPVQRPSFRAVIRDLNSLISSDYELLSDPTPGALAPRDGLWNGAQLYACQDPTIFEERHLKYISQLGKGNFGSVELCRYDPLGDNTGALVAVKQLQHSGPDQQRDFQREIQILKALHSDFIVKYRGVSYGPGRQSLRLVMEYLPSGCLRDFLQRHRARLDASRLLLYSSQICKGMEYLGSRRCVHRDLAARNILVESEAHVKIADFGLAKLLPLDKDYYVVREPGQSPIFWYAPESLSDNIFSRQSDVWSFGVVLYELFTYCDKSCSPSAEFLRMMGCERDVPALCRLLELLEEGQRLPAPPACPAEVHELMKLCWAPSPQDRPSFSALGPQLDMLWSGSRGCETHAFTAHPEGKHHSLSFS

[5] = molecular target: T4, Non-receptor tyrosine-protein kinase TYK2 (Homo sapiens, UniProt P29597); test: Inhibition of human recombinant TYK2 preincubated for 15 mins followed by substrate addition measured after 60 mins by HTRF assay
[6] = molecular target: JAK2/TYK2 (Homo sapiens, UniProt O60674+P29597); test: Inhibition of JAK2/TYK2 signal transduction pathway in human NK92 cells assessed as […] induced IFNgamma expression incubated for 24 hrs by ELISA assay; assay type: cell-based
[7] = molecular target: T1, Tyrosine-protein kinase JAK1; test: Binding affinity to JAK1 JH2 (unknown origin)
[8] = molecular target: T4, Non-receptor tyrosine-protein kinase TYK2; test: Binding affinity to TYK2 JH2 (unknown origin)
[9] = molecular target: T2, Tyrosine-protein kinase JAK2; test: Binding affinity to JAK2 JH1 (unknown origin)
[10] = molecular target: T4, Non-receptor tyrosine-protein kinase TYK2; test: Inhibition of TYK2 signal transduction pathway in human PBMC cells assessed as IFNalpha induced p-STAT5 level; assay type: cell-based
[11] = molecular target: T4, Non-receptor tyrosine-protein kinase TYK2; test: Inhibition of TYK2 signal transduction pathway in human PBMC cells assessed as reduction in GM-CSF induced p-STAT5 level; assay type: cell-based
[12] = molecular target: T4, Non-receptor tyrosine-protein kinase TYK2; test: Inhibition of TYK2 signal transduction pathway in human PBMC cells assessed as IL-2 induced p-STAT5 level; assay type: cell-based
[13] = molecular target: T3, Tyrosine-protein kinase JAK3; test: Inhibition of JAK3 (unknown origin) using ULight - JAK (Tyr1023) substrate incubated for 60 mins in presence of ATP by envision plate reader based analysis
[14] = molecular target: T4, Non-receptor tyrosine-protein kinase TYK2; test: Binding affinity to human wild-type partial length TYK2 JH2 (G556 to D888 residues) expressed in mammalian expression system by KINOMEscan assay
[15] = molecular target: T4, Non-receptor tyrosine-protein kinase TYK2; test: Inhibition of TYK2 JH2 in human KIT225 cells assessed as reduction of IFNalpha induced STAT1 phosphorylation by AlphaLISA assay; assay type: cell-based
[16] = Inhibition of IL-23 induced STAT phosphorylation in HEK293 cells by Western blotting analysis; assay type: cell-based; conditions: Homo sapiens
[17] = Inhibition of IFNalpha induced STAT phosphorylation in HEK293 cells by Western blotting analysis; assay type: cell-based; conditions: Homo sapiens
[18] = molecular target: T4, Non-receptor tyrosine-protein kinase TYK2; test: Inhibition of TYK2 in HEK-Blue IL-23 cells assessed as reduction in SEAP reporter gene expression by Quanti-blue assay; assay type: cell-based
[19] = molecular target: T4, Non-receptor tyrosine-protein kinase TYK2; test: Inhibition of TYK2 JH2 (unknown origin) by scintillation proximity assay
[20] = molecular target: T4, Non-receptor tyrosine-protein kinase TYK2; test: Inhibition of TYK2 JH2 in human TF-1 cells assessed as reduction of IFNalpha induced STAT1 phosphorylation; assay type: cell-based

T1 sequence (P23458 whole entry): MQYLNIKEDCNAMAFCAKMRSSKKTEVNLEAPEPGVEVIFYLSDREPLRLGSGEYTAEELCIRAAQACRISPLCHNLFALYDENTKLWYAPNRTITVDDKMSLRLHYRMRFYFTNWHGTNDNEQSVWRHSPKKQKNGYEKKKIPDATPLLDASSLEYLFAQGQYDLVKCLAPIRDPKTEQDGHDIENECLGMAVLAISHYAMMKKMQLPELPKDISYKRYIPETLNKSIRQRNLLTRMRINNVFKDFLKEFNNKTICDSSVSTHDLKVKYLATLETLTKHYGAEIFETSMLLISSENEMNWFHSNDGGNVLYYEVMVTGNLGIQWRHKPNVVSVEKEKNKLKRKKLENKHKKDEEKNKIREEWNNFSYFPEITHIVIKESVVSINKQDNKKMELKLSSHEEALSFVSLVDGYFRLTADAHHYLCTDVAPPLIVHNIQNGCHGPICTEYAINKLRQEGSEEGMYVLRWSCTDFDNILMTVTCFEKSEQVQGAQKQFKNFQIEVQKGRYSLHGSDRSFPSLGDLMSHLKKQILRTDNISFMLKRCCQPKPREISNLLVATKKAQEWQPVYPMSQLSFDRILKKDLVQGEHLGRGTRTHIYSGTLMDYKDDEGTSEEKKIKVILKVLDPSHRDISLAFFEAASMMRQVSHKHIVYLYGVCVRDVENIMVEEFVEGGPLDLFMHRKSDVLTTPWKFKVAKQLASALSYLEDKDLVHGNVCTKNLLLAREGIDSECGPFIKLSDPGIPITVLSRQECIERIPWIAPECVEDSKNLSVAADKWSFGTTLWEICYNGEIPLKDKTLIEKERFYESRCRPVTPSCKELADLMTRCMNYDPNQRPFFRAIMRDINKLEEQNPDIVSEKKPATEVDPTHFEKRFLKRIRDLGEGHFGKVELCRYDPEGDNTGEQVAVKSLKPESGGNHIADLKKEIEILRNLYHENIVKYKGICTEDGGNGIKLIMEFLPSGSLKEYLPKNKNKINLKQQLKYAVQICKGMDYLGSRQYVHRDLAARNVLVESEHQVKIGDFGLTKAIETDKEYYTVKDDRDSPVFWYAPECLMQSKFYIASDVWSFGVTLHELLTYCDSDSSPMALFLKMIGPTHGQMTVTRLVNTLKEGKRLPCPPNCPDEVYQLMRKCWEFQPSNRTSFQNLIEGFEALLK
T4 sequence (P29597 whole entry): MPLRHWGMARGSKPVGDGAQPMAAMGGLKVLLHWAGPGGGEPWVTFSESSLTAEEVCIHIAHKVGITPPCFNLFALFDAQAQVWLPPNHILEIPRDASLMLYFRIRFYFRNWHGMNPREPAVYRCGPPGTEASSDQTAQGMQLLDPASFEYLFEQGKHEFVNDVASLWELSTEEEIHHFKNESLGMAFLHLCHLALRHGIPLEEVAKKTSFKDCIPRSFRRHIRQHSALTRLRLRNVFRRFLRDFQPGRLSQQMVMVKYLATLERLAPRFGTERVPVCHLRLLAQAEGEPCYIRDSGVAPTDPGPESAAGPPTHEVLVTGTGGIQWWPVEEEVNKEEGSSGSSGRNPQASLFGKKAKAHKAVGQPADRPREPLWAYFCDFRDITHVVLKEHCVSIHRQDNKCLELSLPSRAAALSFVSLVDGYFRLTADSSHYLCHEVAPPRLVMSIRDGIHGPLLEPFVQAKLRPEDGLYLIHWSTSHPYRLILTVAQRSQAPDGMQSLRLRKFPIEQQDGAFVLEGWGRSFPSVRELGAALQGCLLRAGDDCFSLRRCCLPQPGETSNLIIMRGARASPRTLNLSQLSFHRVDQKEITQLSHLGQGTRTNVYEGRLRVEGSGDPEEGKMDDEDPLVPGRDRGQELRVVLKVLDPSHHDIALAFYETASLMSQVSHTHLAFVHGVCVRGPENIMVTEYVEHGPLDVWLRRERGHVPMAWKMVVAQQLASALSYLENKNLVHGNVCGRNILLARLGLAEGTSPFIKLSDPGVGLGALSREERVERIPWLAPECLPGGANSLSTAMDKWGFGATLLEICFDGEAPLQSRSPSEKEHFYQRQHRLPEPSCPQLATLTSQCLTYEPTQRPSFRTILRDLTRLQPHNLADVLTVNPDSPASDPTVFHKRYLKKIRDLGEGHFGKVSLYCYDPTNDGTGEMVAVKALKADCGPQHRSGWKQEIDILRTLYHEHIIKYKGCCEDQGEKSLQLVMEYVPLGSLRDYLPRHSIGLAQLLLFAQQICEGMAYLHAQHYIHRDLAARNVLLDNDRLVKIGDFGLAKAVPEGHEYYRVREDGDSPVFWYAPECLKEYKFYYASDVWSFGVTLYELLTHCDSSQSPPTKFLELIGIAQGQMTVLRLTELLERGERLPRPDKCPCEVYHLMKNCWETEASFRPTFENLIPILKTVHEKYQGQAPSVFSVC
T2 sequence (O60674 whole entry): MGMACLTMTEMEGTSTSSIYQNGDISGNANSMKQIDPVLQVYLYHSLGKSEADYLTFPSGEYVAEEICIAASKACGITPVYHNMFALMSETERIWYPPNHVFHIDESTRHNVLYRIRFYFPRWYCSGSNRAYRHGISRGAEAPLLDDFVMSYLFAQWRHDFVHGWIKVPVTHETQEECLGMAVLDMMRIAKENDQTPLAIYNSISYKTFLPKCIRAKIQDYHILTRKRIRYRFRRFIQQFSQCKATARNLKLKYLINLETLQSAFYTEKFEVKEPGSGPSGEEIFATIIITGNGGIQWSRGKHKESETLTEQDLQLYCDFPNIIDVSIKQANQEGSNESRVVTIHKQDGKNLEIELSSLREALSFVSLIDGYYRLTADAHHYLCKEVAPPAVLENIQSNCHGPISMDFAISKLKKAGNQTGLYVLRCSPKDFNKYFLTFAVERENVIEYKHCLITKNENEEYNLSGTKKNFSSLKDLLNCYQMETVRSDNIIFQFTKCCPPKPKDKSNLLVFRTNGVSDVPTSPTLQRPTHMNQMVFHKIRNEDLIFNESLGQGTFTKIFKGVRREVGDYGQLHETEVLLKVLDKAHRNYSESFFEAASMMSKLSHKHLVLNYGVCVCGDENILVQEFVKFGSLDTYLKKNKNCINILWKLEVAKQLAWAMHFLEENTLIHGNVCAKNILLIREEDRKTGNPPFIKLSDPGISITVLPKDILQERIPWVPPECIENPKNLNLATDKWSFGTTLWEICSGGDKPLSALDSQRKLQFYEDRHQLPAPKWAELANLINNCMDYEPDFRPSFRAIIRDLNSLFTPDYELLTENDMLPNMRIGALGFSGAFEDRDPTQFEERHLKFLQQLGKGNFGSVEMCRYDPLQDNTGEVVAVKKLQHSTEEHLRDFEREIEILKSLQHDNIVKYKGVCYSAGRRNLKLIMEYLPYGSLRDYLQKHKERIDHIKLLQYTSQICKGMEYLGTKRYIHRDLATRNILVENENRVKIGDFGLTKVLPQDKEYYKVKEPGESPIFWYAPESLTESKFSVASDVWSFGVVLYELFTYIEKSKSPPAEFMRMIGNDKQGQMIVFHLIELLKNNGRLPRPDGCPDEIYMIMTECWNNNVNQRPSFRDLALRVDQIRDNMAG
Sequence of JAK2/TYK2 (O60674 whole entry): as above
Sequence of JAK2/TYK2 (P29597 whole entry): as the sequence (P29597 whole entry) above

[2H]C([2H])([2H])NC(=O)c1nnc(NC(=O)C2CC2)cc1Nc1cccc(-c2noc(CN3CCN(S(C)(=O)=O)CC3)n2)c1OC
pIC50 [1]: 7.52

NC(=O)c1nnc(-c2c(F)cccc2F)cc1Nc1ccc(N2CCOCC2)cn1
pIC50 [2]: 7.42
pIC50 [3]: 8.40
pIC50 [4]: 9.00
pIC50 [5]: > 10.22
pIC50 [6]: 10.10

[2H]C([2H])([2H])CC(=O)c1cnc(Nc2cccc(C#N)n2)cc1Nc1cccc(-c2ncn(C([2H])([2H])[2H])n2)c1OC
pKd [7]: ≥ 7.00
pKd [8]: ≥ 8.00
pKd [9]: < 5.00
pIC50 [10]: > 7.00
pIC50 [11]: ≥ 6.00
pIC50 [12]: ≥ 7.00

[2H]C([2H])([2H])NC(=O)c1cnc(Nc2cc(C3CC3)ncn2)cc1Nc1ncccc1S(C)(=O)=O
pIC50 [1]: 8.05

Cn1cc(-c2cn3ncnc3c(-c3ccn([C@]4(CC#N)C[C@H](C#N)C4)c3)n2)cn1
pIC50 [13]: < 5.30

CNC(=O)c1nnc(NC(=O)N2CCC2)cc1Nc1cccc(-c2ncn(C)n2)c1OC
pKd [14]: 10.55
pIC50 [15]: 7.27

[2H]C([2H])([2H])NC(=O)c1nnc(NC(=O)C2CC2)cc1Nc1cccc2c1N(C)Cc1cccnc1-2
pIC50 [16]: > 7.52
pIC50 [17]: > 7.52

[2H]C([2H])([2H])NC(=O)c1nnc(NC(=O)C2CC2)cc1Nc1cccc(-c2noc(CN3CCN(S(C)(=N)=O)CC3)n2)c1OC (configuration not stated)
pKd [14]: 11.10

[2H]C([2H])([2H])NC(=O)c1nnc(NC(=O)C2CC2)cc1Nc1ncc(C2CC2)cc1S(C)(=O)=O
pIC50 [18]: > 9.00

[2H]C([2H])([2H])NC(=O)c1nnc(NC(=O)C2CC2)cc1Nc1cccc(-n2cc3c(n2)CN(S(C)(=N)=O)C3)c1OC (configuration not stated)
pKd [14]: 11.05

NC(=O)c1nnc(-c2c(F)cccc2F)cc1Nc1ccc(N2CCOCC2=O)cn1
pIC50 [2]: 7.09
pIC50 [3]: 8.30
pIC50 [4]: 8.15
pIC50 [5]: 10.10
pIC50 [6]: 9.52

[2H]C([2H])([2H])NC(=O)c1nnc(NC(=O)C2CC2)cc1Nc1cccc2c1N(C)Cc1cn(C([2H])([2H])[2H])nc1-2
pIC50 [16]: > 7.52
pIC50 [17]: > 7.52

[2H]C([2H])([2H])NC(=O)c1nnc(NC(=O)C2CC2)cc1Nc1cccc(-c2ncc(C(=O)N3CCN(C4CCCC4)CC3)s2)c1OC
pIC50 [1]: 7.40

CCOc1cccc(Nc2cc(NC)n3ncc(C(=O)N[C@@H]4CCN(C)C4=O)c3n2)n1
pIC50 [19]: > 6.60
pIC50 [20]: 7.42

[2H]C([2H])([2H])NC(=O)c1nnc(NC(=O)[C@H]2CC23CC3)cc1Nc1ncccc1S(C)(=O)=O
pIC50 [1]: 7.33

[2H]C([2H])([2H])NC(=O)c1nnc(NC(=O)C2CC2)cc1Nc1cccc2c1N(C)Cc1cn(C)nc1-2
pIC50 [16]: > 7.52
pIC50 [17]: > 7.52

[2H]C([2H])([2H])CC(=O)c1cnc(Nc2cccc(C#N)n2)cc1Nc1nccc(-c2ncn(C([2H])([2H])[2H])n2)c1OC
pKd [7]: ≥ 7.00
pKd [8]: ≥ 8.00
pKd [9]: < 5.00
pIC50 [10]: > 7.00
pIC50 [11]: ≥ 6.00
pIC50 [12]: ≥ 7.00

CNc1cc(Nc2cccn(-c3ccccn3)c2=O)nc2c(C(=O)N[C@@H]3CCN(C)C3=O)cnn12
pIC50 [19]: > 6.60
pIC50 [20]: 6.95
